Test results as given in patent publication US6017918A, “Phenyl glycine compounds and methods of treating atherosclerosis and restenosis” (Warner-Lambert Company, priority 1999, dated 2000).
Several values for one entry are separate records, joined by “and”; a condition that tells them apart may be missing. Identical values can stand only once.

Legend:
[1] = system: apolipoprotein(a), [apo(a)], apolipoproteinB-100, [apoB-100], coupling reaction that generates Lp(a); experiment: LPABC screen: lipoprotein(a) biochemical coupling assay, Lp(a) by ELISA; settings: recombinant apo(a) + HepG2 conditioned media, 67 minutes, 37° C.; ^a = multiple tests
Source text: The lipoprotein(a), [Lp(a)], biochemical coupling assay (LPABC) is used to characterize inhibitors of the apolipoprotein(a), [apo(a)], apolipoproteinB-100, [apoB-100], coupling reaction that generates Lp(a).
Protocol Conditioned media from 293 cells (ATCC CRL-1573), permanently transfected with an apo(a) 17-kringle cDNA expression construct (pcDNA-AMP, In Vitrogen, Carlsbad, Calif.) using standard molecular biology techniques, was used as a source of recombinant apo(a). The 293 cell conditioned media containing the recombinant apo(a) is diluted 1:3 with phosphate buffered saline (PBS) and 90 μL is pipetted into each well of a 96-well plate and placed into a 37° C. incubator for 10 minutes. Twenty microliters of a 0.3 to 50 μM solution of a compound of the present invention in PBS is added to the warmed plate. Ninety microliters of HepG2 (ATCC HB-8065) cell conditioned media diluted 1:3 with PBS is added to the apo(a)/compound mixture and mixed by pipetting up and down 5 times. The reaction is incubated for 67 minutes in a 37° C. incubator. A 100 μL aliquot of the reaction is removed and assayed for its Lp(a) content by an enzyme linked immunosorbent assay (ELISA).

[2] = system: Lp(a) production (HepG2^K17 cells); experiment: LPA3 screen: inhibition of Lp(a) production in HepG2^K17 cells, Lp(a) by ELISA; type: cell-based; settings: 8 h, Lp(a) normalized for total protein, ^a = multiple tests
Protocol: The LPA3 screen is used to identify compounds that inhibit Lp(a) production. This screen employs permanently transfected HepG2 cells (HepG2^K17) that are generated using an apo(a) 17-kringle cDNA expression construct (pcDNA-AMP, In Vitrogen, Carlsbad, Calif.) in accordance with methods that are well-known in molecular biology.
HepG2^K17 cells are seeded in 96-well plates at a density of 75,000 cells per well in 0.25 mL of Dulbecco's Modified Eagle Media (DMEM) containing 10% fetal bovine serum (FBS). Seeded plates are incubated overnight in a 37° C., 5% CO2 /95% […] incubator. The media is removed, replaced with (1) fresh media, or (2) fresh media plus 0.3 to 50 μM of a compound of the present invention in 20 μL of PBS, and the plates returned to the incubator for 8 hours. After the additional 8 hours of incubation, Lp(a) is assayed in the media by ELISA. Cells are digested with 0.5N NaOH overnight and assayed for total protein. Lp(a) values are normalized for total protein content.

| Structure (SMILES) | IC50 [1] | IC50 [2] |
| --- | --- | --- |
| CCOC(=O)C(Nc1cccnc1)c1cc(C(C)(C)C)c(O)c(C(C)(C)C)c1 (centres unmarked) [Example 1, (3,5-Di-tert-butyl-4-hydroxy-phenyl)-[(pyridin-3-yl)-amino]-acetic acid ethyl ester] | 6.48 µM | 7.6 µM |
| CCOC(=O)C(NCc1cccnc1)c1cc(C(C)(C)C)c(O)c(C(C)(C)C)c1 (centres unmarked) [Example 2, (3,5-Di-tert-butyl-4-hydroxy-phenyl)-[(pyridin-3-ylmethyl)-amino]-acetic acid ethyl ester] | 10 µM | 20 µM |
| CCOC(=O)C(NCc1ccncc1)c1cc(C(C)(C)C)c(O)c(C(C)(C)C)c1 (centres unmarked) [Example 3, (3,5-Di-tert-butyl-4-hydroxy-phenyl)-[(pyridin-4-ylmethyl)-amino]-acetic acid ethyl ester] | 7.27 µM | 25.4 µM |
| CCOC(=O)C(NCc1ccccn1)c1cc(C(C)(C)C)c(O)c(C(C)(C)C)c1 (centres unmarked) [Example 4] | 6.48 µM | 9.1 µM |
| CCOC(=O)C(NCc1ccccc1)c1cc(C(C)(C)C)c(O)c(C(C)(C)C)c1 (centres unmarked) [Example 5, Benzylamino-(3,5-di-tert-butyl-4-hydroxy-phenyl)-acetic acid ethyl ester] | 10.3 µM | 76 µM |
| CCOC(=O)C(NCC1CCCCC1)c1cc(C(C)(C)C)c(O)c(C(C)(C)C)c1 (centres unmarked) [Example 6, (Cyclohexylmethyl-amino)-(3,5-di-tert-butyl-4-hydroxy-phenyl)-acetic acid ethyl ester] | 6.52 µM | > 74 µM |
| CC(C)(C)c1cc(C(NCc2cccnc2)C(=O)O)cc(C(C)(C)C)c1O (centres unmarked) [Example 7, (3,5-Di-tert-butyl-4-hydroxy-phenyl)-[(pyridin-3-ylmethyl)-amino]-acetic acid] | 62.2 µM |  |
| CCOC(=O)C(NC1CCCCC1)c1cc(C(C)(C)C)c(O)c(C(C)(C)C)c1 (centres unmarked) [Example 8, (3,5-Di-tert-butyl-4-hydroxy-phenyl)-[(cyclohexyl)-amino]-acetic acid etyl ester] | 4.16 µM |  |
| CCOC(=O)C(c1cc(C(C)(C)C)c(O)c(C(C)(C)C)c1)N(Cc1cccnc1)Cc1cccnc1 (centres unmarked) [Example 9, (Bis-pyridin-3-ylmethyl-amino)-(3,5-di-tert-butyl-4-hydroxy-phenyl)-acetic acid ethyl ester] | 1.34 µM and 1.3 µM |  |
| CCOC(=O)C(NCc1cccc(Cl)c1)c1cc(C(C)(C)C)c(O)c(C(C)(C)C)c1 (centres unmarked) [Example 10, (3-Chloro-benzylamino)-(3,5-di-tert-butyl-4-hydroxy-phenyl)-acetic acid ethyl ester] | 12.5 µM |  |
| CCOC(=O)C(NCC1CCCCC1)c1cc(-c2ccccc2)c(O)c(-c2ccccc2)c1 (centres unmarked) [Example 11, (Cyclohexylmethyl-amino)-(2'-hydroxy-[1,1';3',1"]terphenyl-5'-yl)-acetic acid ethyl ester] | 60.2 µM |  |
| CCOC(=O)C(NCC1CC1)c1cc(C(C)(C)C)c(O)c(C(C)(C)C)c1 (centres unmarked) [Example 12, (Cyclopropylmethyl-amino)-(3,5-di-tert-butyl-4-hydroxy-phenyl)-acetic acid ethyl ester] | 12.2 µM |  |
| CCOC(=O)C(NCC1CCCCC1)c1cc(C(C)CC)c(O)c(C(C)CC)c1 (centres unmarked) [Example 13, (Cyclohexylmethyl-amino)-(3,5-di-sec-butyl-4-hydroxy-phenyl)-acetic acid ethyl ester] | 67.4 µM |  |
| CCOC(=O)C(NCc1cc(O)c(OC)c(OC)c1)c1cc(C(C)(C)C)c(O)c(C(C)(C)C)c1 (centres unmarked) [Example 14, (3,5-Di-tert-butyl-4-hydroxy-phenyl)-(3-hydroxy-4,5-dimethoxy-benzylamino)-acetic acid ethyl ester] | 10.6 µM | 9.3 µM |
| CCOC(=O)C(NCc1cc(OC)c(OC)c(OC)c1)c1cc(C(C)(C)C)c(O)c(C(C)(C)C)c1 (centres unmarked) [Example 15, (3,5-Di-tert-butyl-4-hydroxy-phenyl)-(3,4,5-trimethoxy-benzylamino)-acetic acid ethyl ester] | 10.3 µM | 4.6 µM |
| CCOC(=O)C(c1cc(C(C)(C)C)c(O)c(C(C)(C)C)c1)N(Cc1cccnc1)CC1CCCCC1 (centres unmarked) [Example 16, (Cyclohexylmethyl-pyridin-3-ylmethyl-amino)-(3,5-di-tert-butyl-4-hydroxy-phenyl)-acetic acid ethyl ester] | 1.48 µM | 3.7 µM |

| Structure (SMILES) | IC50 [1] | IC50 [2] |
| --- | --- | --- |
| CCOC(=O)C(c1cc(C(C)(C)C)c(O)c(C(C)(C)C)c1)N(C)C (centres unmarked) [Example 17, (3,5-Di-tert-butyl-4-hydroxy-phenyl)-dimethylamino-acetic acid ethyl ester] | 0.65 µM |  |
| CCOC(=O)C(NCc1cc(C(C)(C)C)c(O)c(C(C)(C)C)c1)c1cc(C(C)(C)C)c(O)c(C(C)(C)C)c1 (centres unmarked) [Example 18] | 75 µM |  |
| CCOC(=O)C(NCc1ccc(N)cc1)c1cc(C(C)(C)C)c(O)c(C(C)(C)C)c1 (centres unmarked) [Example 30, (4-Amino-benzylamino)-(3,5-di-tert-butyl-4-hydroxy-phenyl)-acetic acid ethyl ester] | 62.6 µM | > 74 µM |
| CCOC(=O)C(NCc1cc2c(cc1N)OCO2)c1cc(C(C)(C)C)c(O)c(C(C)(C)C)c1 (centres unmarked) [Example 31, [(6-Amino-benzo[1,3]dioxol-5-ylmethyl)-amino]-(3,5-di-tert-butyl-4-hydroxy-phenyl)-acetic acid ethyl ester] | 21 µM | > 74 µM |
| CCOC(=O)C(NCc1ccc(OC)cc1)c1cc(C(C)(C)C)c(O)c(C(C)(C)C)c1 (centres unmarked) [Example 32, (3,5-Di-tert-butyl-4-hydroxy-phenyl)-(4-methoxy-benzylamino)-acetic acid ethyl ester] | 29.6 µM | > 74 µM |
| CCOC(=O)C(NCc1ccccc1Cl)c1cc(C(C)(C)C)c(O)c(C(C)(C)C)c1 (centres unmarked) [Example 33, (2-Chloro-benzylamino)-(3,5-di-tert-butyl-4-hydroxy-phenyl)-acetic acid ethyl ester] | 43.4 µM | > 74 µM |
| CCOC(=O)C(NCc1ccc(C#N)cc1)c1cc(C(C)(C)C)c(O)c(C(C)(C)C)c1 (centres unmarked) [Example 34, (4-Cyano-benzylamino)-(3,5-di-tert-butyl-4-hydroxy-phenyl)-acetic acid ethyl ester] | 57.6 µM | > 74 µM |
| CCOC(=O)C(NCc1cc(Cl)cc(Cl)c1O)c1cc(C(C)(C)C)c(O)c(C(C)(C)C)c1 (centres unmarked) [Example 35, (3,5-Di-tert-butyl-4-hydroxy-phenyl)-(3,5-dichloro-2-hydroxy-benzylamino)-acetic acid ethyl ester] | 15.9 µM | > 74 µM |
| CCOC(=O)C(NCc1ccc(Cl)cc1Cl)c1cc(C(C)(C)C)c(O)c(C(C)(C)C)c1 (centres unmarked) [Example 36, (3,5-Di-tert-butyl-4-hydroxy-phenyl)-(2,4-dichloro-benzylamino)-acetic acid ethyl ester] | 47.9 µM | > 74 µM |
| CCOC(=O)C(NCc1ccc(OCCN(CC)CC)cc1)c1cc(C(C)(C)C)c(O)c(C(C)(C)C)c1 (centres unmarked) [Example 37, (3,5-Di-tert-butyl-4-hydroxy-phenyl)-[4-(2-diethylamino-ethoxy)-benzylamino]-acetic acid ethyl ester] | 29.6 µM |  |
| CCOC(=O)C(NCc1ccc(N(C)C)cc1)c1cc(C(C)(C)C)c(O)c(C(C)(C)C)c1 (centres unmarked) [Example 38, (3,5-Di-tert-butyl-4-hydroxy-phenyl)-[4-dimethylamino-benzylamino]-acetic acid ethyl ester] | 54 µM | > 74 µM |
| CCOC(=O)C(NCc1ccc(O)c(OCC)c1)c1cc(C(C)(C)C)c(O)c(C(C)(C)C)c1 (centres unmarked) [Example 39, (3,5-Di-tert-butyl-4-hydroxy-phenyl)-(3-ethoxy-4-hydroxy-benzylamino)-acetic acid ethyl ester] | 59.1 µM | > 74 µM |
| CCOC(=O)C(NCc1ccoc1)c1cc(C(C)(C)C)c(O)c(C(C)(C)C)c1 (centres unmarked) [Example 41, (3,5-Di-tert-butyl-4-hydroxy-phenyl)-[(furan-3-ylmethyl)-amino]-acetic acid ethyl ester] | 9.37 µM |  |
| CCOC(=O)C(NCc1ccc(O)cc1)c1cc(C(C)(C)C)c(O)c(C(C)(C)C)c1 (centres unmarked) [Example 43, (3,5-Di-tert-butyl-4-hydroxy-phenyl)-(4-hydroxy-benzylamino)-acetic acid ethyl ester] |  | > 74 µM |
| CCNC(C(=O)OCC)c1cc(C(C)(C)C)c(O)c(C(C)(C)C)c1 (centres unmarked) [Example 51, (3,5-Di-tert-butyl-4-hydroxy-phenyl)-(ethylamino)-acetic acid ethyl ester] | 10.9 µM |  |
| CCOC(=O)C(c1cc(C(C)(C)C)c(O)c(C(C)(C)C)c1)N1CCN(C)CC1 (centres unmarked) [Example 55, (3,5-Di-tert-butyl-4-hydroxy-phenyl)-[(N'-methyl)-N-piperazinyl]-acetic acid ethyl ester] | 1.66 µM |  |
